Results reported in patent publication US20240199754A1 (VANCOUVER BIOTECH LTD., priority 2021, published 2024).
Square brackets hold non-standard residues; d marks the D form. Peptide text beside a SMILES is read from it. dPhe(4-Cl) = N[C@H](Cc1ccc(Cl)cc1)C(=O)O; d2Nal = N[C@H](Cc1ccc2ccccc2c1)C(=O)O; dCit = NC(=O)NCCC[C@@H](N)C(=O)O; d3Pal = N[C@H](Cc1cccnc1)C(=O)O

T1: N1-29 synthetic oligopeptide of human GnRH receptor (human)
T1 construct: Synthetic peptide coated on microwells; also called human N1-29 peptide; N1-29 oligopeptide
T1 peptide: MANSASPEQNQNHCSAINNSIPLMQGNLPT

B1: GHR-106(hIgG4), humanized IgG4 GHR-106 monoclonal antibody (antibody, V domains shown)
VH: QVQLQESGPGLVKPSETLSLTCTVSGFSLSRYSVHWIRQPPGKGLEWIGMIWGGGSTDYNPSLKSRVTISKDNSKSQVFLKMSSVTAADTAMYYCARGNDGYYSFAYWGQGTLVTVSS
VL: DIVMTQSPDSLAVSLGERATINCKSSQSLLNSRTRKNYLAWYQQKPGQSPKLLIYWASTRESGVPDRFSGSGSGTDFTLTISSLQAEDVAVYYCKQSYNLYTFGQGTKLEIKR
notes: Humanized IgG4

What was measured:
[1] = cited from earlier work
[2] = target: T1, N1-29 synthetic oligopeptide of human …; assay: ELISA on well-coated N1-29 peptide, goat anti-human IgG-alkaline phosphatase, OD 405 nm
Source text: Goat anti-human IgG labeled with alkaline phosphatase was used as the second antibody for signal detection. P-nitrophenyl phosphate was used as the substrate and monitored at 405 nm and double log plot presented.

| Molecule | circulation half life [1] | binding result [2] |
| --- | --- | --- |
| CC(=O)N[C@H](Cc1ccc2ccccc2c1)C(=O)N[C@H](Cc1ccc(Cl)cc1)C(=O)N[C@H](Cc1cccnc1)C(=O)N[C@@H](CO)C(=O)N[C@@H](Cc1ccc(O)cc1)C(=O)N[C@H](CCCNC(N)=O)C(=O)N[C@@H](CC(C)C)C(=O)N[C@@H](CCCNC(=N)N)C(=O)N1CCC[C@H]1C(=O)N[C@H](C)C(N)=O [Cetrorelix, reference compound] (Ac-[d2Nal][dPhe(4-Cl)][d3Pal]SY[dCit]LRP[dA]-NH2) | 10 to 63 h | – |
| B1 | – | binds |
